In patent US5556744A, “Methods and compositions for diagnosing and treating certain HIV infected patients” (The Trustees of the University of Pennsylvania, priority 1994, dated 1996):

Columns and labels:
Parameters in all cases: species or system human
[1] = tested on: sera samples (antibodies); test: ELISA peptide-binding of maternal sera, MN strain peptides (Example 7); details: for Correlation of peptide binding with non-transmission (in words): Example 7; for % Bound, Non-Transmitter / No. of Sera Samples Bound, Non-Transmitter / % Bound, Transmitter / No. of Sera Samples Bound, Transmitter: n = 5
Method: This example provides additional sera screens using peptides corresponding to sequences of the MN strain. The sera samples (5 transmitters and 5 non-transmitters) were obtained from the NIH and differ from those screened in the previous studies. Peptide binding was analyzed by ELISA as described in Example 3.

[2] = tested on: maternal sera (antibodies); test: ELISA peptide-binding of maternal sera (Example 6); details: for Number of Non-Transmitters which bound to peptide / Percent of Non-Transmitters which bound to peptide: N = 12; for Number of Transmitters which bound to peptide / Percent of Transmitters which bound to peptide: N = 4
Summary of the method: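 HIV-1 envelope peptides averaging 16 amino acids, covering external and transmembrane glycoprotein, were probed by ELISA. Third-trimester maternal sera, classed as transmitter or non-transmitter by child diagnosis, were each run on at least 40 peptides. Values give percent of sera binding a peptide.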

[3] = tested on: maternal HIV+ sera (antibodies); test: RIA / ELISA binding of maternal HIV+ sera to gp120 and gp41 peptides (Example 3)
Summary of the method: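 Maternal sera, diluted 1:50 and 1:500, were bound overnight at 4°C to peptides immobilized at 10 μg/ml (pH 9.6 carbonate) and blocked with 1% BSA. Read-out was ¹²⁵I-labelled anti-human IgG counts or HRP-TMB OD450. Signal with peptide minus without was expressed relative to seronegative serum.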

[4] = Serum No. 1, Non-Transmission Group
[5] = Serum No. 2, Non-Transmission Group
[6] = Serum No. 3, Non-Transmission Group
[7] = Serum No. 4, Transmission Group
[8] = Serum No. 5, Transmission Group
[9] = Serum No. 6, Non-Transmission Group
[10] = Serum No. 7, Non-Transmission Group
[11] = Serum No. 8, Non-Transmission Group
[12] = Serum No. 9, Non-Transmission Group
[13] = Serum No. 10, Transmission Group
[14] = Serum No. 11, Non-Transmission Group
[15] = Serum No. 12, Non-Transmission Group
[16] = Serum No. 13, Transmission Group
[17] = Serum No. 14, Transmission Group
[18] = Serum No. 15, Transmission Group
[19] = Serum No. 16, Non-Transmission Group
[20] = Serum No. 17, Non-Transmission Group
[21] = Serum No. 18, Non-Transmission Group
[22] = Serum No. 19, Transmission Group
[23] = Serum No. 20, Non-Transmission Group

DTSGRLVHGFLAIIW [MN-8]
Correlation of peptide binding with non-transmission (in words) [1]: selectively correlate with non-transmission
% Bound, Non-Transmitter [1]: 80%
No. of Sera Samples Bound, Non-Transmitter [1]: 4
% Bound, Transmitter [1]: 20%
No. of Sera Samples Bound, Transmitter [1]: 1

HIPTRIRQGLERALL [MN-11]
Correlation of peptide binding with non-transmission (in words) [1]: selectively correlate with non-transmission
% Bound, Non-Transmitter [1]: 60%
No. of Sera Samples Bound, Non-Transmitter [1]: 3
% Bound, Transmitter [1]: 0%
No. of Sera Samples Bound, Transmitter [1]: 0

HMLQLTVWGIKQLQAR [MN-15]
Correlation of peptide binding with non-transmission (in words) [1]: selectively correlate with non-transmission
% Bound, Non-Transmitter [1]: 60%
No. of Sera Samples Bound, Non-Transmitter [1]: 3
% Bound, Transmitter [1]: 0%
No. of Sera Samples Bound, Transmitter [1]: 0

MN-10: gp41 peptide, amino acids 716-730, HIV strain MN, SEQ ID NO: 158
% Bound, Non-Transmitter [1]: 20%
No. of Sera Samples Bound, Non-Transmitter [1]: 1
% Bound, Transmitter [1]: 20%
No. of Sera Samples Bound, Transmitter [1]: 1

MN-12: gp41 peptide, amino acids 830-842, HIV strain MN, SEQ ID NO: 197
% Bound, Non-Transmitter [1]: 0%
No. of Sera Samples Bound, Non-Transmitter [1]: 0
% Bound, Transmitter [1]: 0%
No. of Sera Samples Bound, Transmitter [1]: 0

VSLKCTDLKNDTNTN [Peptide 97]
Number of Non-Transmitters which bound to peptide [2]: 2
Percent of Non-Transmitters which bound to peptide [2]: 16.7%
Number of Transmitters which bound to peptide [2]: 0
Percent of Transmitters which bound to peptide [2]: 0%
Binding of maternal sera to peptide (in words) ([3]; Example 3): No binding
Binding of maternal HIV+ serum to peptide (sera/NHS ratio) [3, 4]: - (specific OD450 or cpm of sera sample binding to peptide divided by the specific OD450 or cpm of NHS sample binding to peptide, which value is less than 2)
Binding of maternal HIV+ serum to peptide (sera/NHS ratio) [3, 5]: - (specific OD450 or cpm of sera sample binding to peptide divided by the specific OD450 or cpm of NHS sample binding to peptide, which value is less than 2)
Binding of maternal HIV+ serum to peptide (sera/NHS ratio) [3, 6]: - (specific OD450 or cpm of sera sample binding to peptide divided by the specific OD450 or cpm of NHS sample binding to peptide, which value is less than 2)
Binding of maternal HIV+ serum to peptide (sera/NHS ratio) [3, 7]: - (specific OD450 or cpm of sera sample binding to peptide divided by the specific OD450 or cpm of NHS sample binding to peptide, which value is less than 2)
Binding of maternal HIV+ serum to peptide (sera/NHS ratio) [3, 8]: - (specific OD450 or cpm of sera sample binding to peptide divided by the specific OD450 or cpm of NHS sample binding to peptide, which value is less than 2)
Binding of maternal HIV+ serum to peptide (sera/NHS ratio) [3, 9]: - (specific OD450 or cpm of sera sample binding to peptide divided by the specific OD450 or cpm of NHS sample binding to peptide, which value is less than 2)
Binding of maternal HIV+ serum to peptide (sera/NHS ratio) [3, 10]: - (specific OD450 or cpm of sera sample binding to peptide divided by the specific OD450 or cpm of NHS sample binding to peptide, which value is less than 2)
Binding of maternal HIV+ serum to peptide (sera/NHS ratio) [3, 11]: - (specific OD450 or cpm of sera sample binding to peptide divided by the specific OD450 or cpm of NHS sample binding to peptide, which value is less than 2)
Binding of maternal HIV+ serum to peptide (sera/NHS ratio) [3, 12]: - (specific OD450 or cpm of sera sample binding to peptide divided by the specific OD450 or cpm of NHS sample binding to peptide, which value is less than 2)
Binding of maternal HIV+ serum to peptide (sera/NHS ratio) [3, 13]: - (specific OD450 or cpm of sera sample binding to peptide divided by the specific OD450 or cpm of NHS sample binding to peptide, which value is less than 2)
Binding of maternal HIV+ serum to peptide (sera/NHS ratio) [3, 14]: - (specific OD450 or cpm of sera sample binding to peptide divided by the specific OD450 or cpm of NHS sample binding to peptide, which value is less than 2)
Binding of maternal HIV+ serum to peptide (sera/NHS ratio) [3, 15]: - (specific OD450 or cpm of sera sample binding to peptide divided by the specific OD450 or cpm of NHS sample binding to peptide, which value is less than 2)
Binding of maternal HIV+ serum to peptide (sera/NHS ratio) [3, 16]: - (specific OD450 or cpm of sera sample binding to peptide divided by the specific OD450 or cpm of NHS sample binding to peptide, which value is less than 2)
Binding of maternal HIV+ serum to peptide (sera/NHS ratio) [3, 17]: - (specific OD450 or cpm of sera sample binding to peptide divided by the specific OD450 or cpm of NHS sample binding to peptide, which value is less than 2)
Binding of maternal HIV+ serum to peptide (sera/NHS ratio) [3, 18]: - (specific OD450 or cpm of sera sample binding to peptide divided by the specific OD450 or cpm of NHS sample binding to peptide, which value is less than 2)
Binding of maternal HIV+ serum to peptide (sera/NHS ratio) [3, 19]: - (specific OD450 or cpm of sera sample binding to peptide divided by the specific OD450 or cpm of NHS sample binding to peptide, which value is less than 2)
Binding of maternal HIV+ serum to peptide (sera/NHS ratio) [3, 20]: - (specific OD450 or cpm of sera sample binding to peptide divided by the specific OD450 or cpm of NHS sample binding to peptide, which value is less than 2)
Binding of maternal HIV+ serum to peptide (sera/NHS ratio) [3, 21]: - (specific OD450 or cpm of sera sample binding to peptide divided by the specific OD450 or cpm of NHS sample binding to peptide, which value is less than 2)
Binding of maternal HIV+ serum to peptide (sera/NHS ratio) [3, 22]: - (specific OD450 or cpm of sera sample binding to peptide divided by the specific OD450 or cpm of NHS sample binding to peptide, which value is less than 2)
Binding of maternal HIV+ serum to peptide (sera/NHS ratio) [3, 23]: - (specific OD450 or cpm of sera sample binding to peptide divided by the specific OD450 or cpm of NHS sample binding to peptide, which value is less than 2)

WGIKQLQARILAVER [Peptide 120]
Number of Non-Transmitters which bound to peptide [2]: 0
Percent of Non-Transmitters which bound to peptide [2]: 0%
Number of Transmitters which bound to peptide [2]: 0
Percent of Transmitters which bound to peptide [2]: 0%
Binding of maternal HIV+ serum to peptide (sera/NHS ratio) [3, 4]: - (specific OD450 or cpm of sera sample binding to peptide divided by the specific OD450 or cpm of NHS sample binding to peptide, which value is less than 2)
Binding of maternal HIV+ serum to peptide (sera/NHS ratio) [3, 5]: - (specific OD450 or cpm of sera sample binding to peptide divided by the specific OD450 or cpm of NHS sample binding to peptide, which value is less than 2)
Binding of maternal HIV+ serum to peptide (sera/NHS ratio) [3, 6]: - (specific OD450 or cpm of sera sample binding to peptide divided by the specific OD450 or cpm of NHS sample binding to peptide, which value is less than 2)
Binding of maternal HIV+ serum to peptide (sera/NHS ratio) [3, 7]: - (specific OD450 or cpm of sera sample binding to peptide divided by the specific OD450 or cpm of NHS sample binding to peptide, which value is less than 2)
Binding of maternal HIV+ serum to peptide (sera/NHS ratio) [3, 8]: - (specific OD450 or cpm of sera sample binding to peptide divided by the specific OD450 or cpm of NHS sample binding to peptide, which value is less than 2)
Binding of maternal HIV+ serum to peptide (sera/NHS ratio) [3, 9]: - (specific OD450 or cpm of sera sample binding to peptide divided by the specific OD450 or cpm of NHS sample binding to peptide, which value is less than 2)
Binding of maternal HIV+ serum to peptide (sera/NHS ratio) [3, 10]: - (specific OD450 or cpm of sera sample binding to peptide divided by the specific OD450 or cpm of NHS sample binding to peptide, which value is less than 2)
Binding of maternal HIV+ serum to peptide (sera/NHS ratio) [3, 11]: - (specific OD450 or cpm of sera sample binding to peptide divided by the specific OD450 or cpm of NHS sample binding to peptide, which value is less than 2)
Binding of maternal HIV+ serum to peptide (sera/NHS ratio) [3, 12]: - (specific OD450 or cpm of sera sample binding to peptide divided by the specific OD450 or cpm of NHS sample binding to peptide, which value is less than 2)
Binding of maternal HIV+ serum to peptide (sera/NHS ratio) [3, 13]: - (specific OD450 or cpm of sera sample binding to peptide divided by the specific OD450 or cpm of NHS sample binding to peptide, which value is less than 2)
Binding of maternal HIV+ serum to peptide (sera/NHS ratio) [3, 14]: - (specific OD450 or cpm of sera sample binding to peptide divided by the specific OD450 or cpm of NHS sample binding to peptide, which value is less than 2)
Binding of maternal HIV+ serum to peptide (sera/NHS ratio) [3, 15]: - (specific OD450 or cpm of sera sample binding to peptide divided by the specific OD450 or cpm of NHS sample binding to peptide, which value is less than 2)
Binding of maternal HIV+ serum to peptide (sera/NHS ratio) [3, 16]: - (specific OD450 or cpm of sera sample binding to peptide divided by the specific OD450 or cpm of NHS sample binding to peptide, which value is less than 2)
Binding of maternal HIV+ serum to peptide (sera/NHS ratio) [3, 17]: - (specific OD450 or cpm of sera sample binding to peptide divided by the specific OD450 or cpm of NHS sample binding to peptide, which value is less than 2)
Binding of maternal HIV+ serum to peptide (sera/NHS ratio) [3, 18]: - (specific OD450 or cpm of sera sample binding to peptide divided by the specific OD450 or cpm of NHS sample binding to peptide, which value is less than 2)
Binding of maternal HIV+ serum to peptide (sera/NHS ratio) [3, 19]: - (specific OD450 or cpm of sera sample binding to peptide divided by the specific OD450 or cpm of NHS sample binding to peptide, which value is less than 2)
Binding of maternal HIV+ serum to peptide (sera/NHS ratio) [3, 20]: - (specific OD450 or cpm of sera sample binding to peptide divided by the specific OD450 or cpm of NHS sample binding to peptide, which value is less than 2)
Binding of maternal HIV+ serum to peptide (sera/NHS ratio) [3, 21]: - (specific OD450 or cpm of sera sample binding to peptide divided by the specific OD450 or cpm of NHS sample binding to peptide, which value is less than 2)
Binding of maternal HIV+ serum to peptide (sera/NHS ratio) [3, 22]: - (specific OD450 or cpm of sera sample binding to peptide divided by the specific OD450 or cpm of NHS sample binding to peptide, which value is less than 2)
Binding of maternal HIV+ serum to peptide (sera/NHS ratio) [3, 23]: - (specific OD450 or cpm of sera sample binding to peptide divided by the specific OD450 or cpm of NHS sample binding to peptide, which value is less than 2)
